Read-outs that look alike come from different tables or passages of the source.
Key:
LRRK2 = LRRK2 (Homo sapiens, UniProt Q5S007); experiment: LRRK2 IC50 (Table 4); format: biochemical
CRBN = biological target: T1, CRBN (Homo sapiens, UniProt Q96SW2); experiment: Intracellular CRBN Engagement Assay (dFKBP7 rescue); format: cell-based; conditions: competition with 80 nM dFKBP7, 3 hours; read-out: FKBP7 rescue (EC50)
T1 construct: endogenous in cells

797 = experiment: Cell viability, 797 cells (Table 4); format: cell-based; conditions: read-out: IC50 (nM) 797
CRBN-DDB1 = biological target: T2, CRBN-DDB1 (Homo sapiens, UniProt Q96SW2); experiment: CRBN-DDB1 Ligand-Displacement AlphaScreen Assay (thalidomide competition); format: binding; conditions: biotin-thalidomide competition; read-out: THAL ALPHA (IC50);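 further: streptavidin donor and nickel chelate acceptor bead proximity signal after 30 min incubation, normalized with no-protein background as 0% and DMSO wells as 100% activity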
T2 construct: 6xHis (given for the complex); made in house; host or cells: Sf9 cells (Invitrogen), pFastBac

BRDT = BRDT (Homo sapiens, UniProt Q58F21); experiment: BRDT IC50 (Table 4); format: binding
MV4; 11 = experiment: Cell viability, ATPlite 48 hours, MV4-11; format: cell-based; conditions: Homo sapiens, 11 cells
BRD4 [1] = biological target: T3, BRD4 (Homo sapiens, UniProt O60885); experiment: Immunoblot for BRD4 in MV4-11 cells; format: cell-based
MV4-11 = experiment: Analysis of apoptotic cells by Caspase Glo assay; format: cell-based; conditions: MV4-11, 4 or 8 hours treatment, assessed at 24 hours
[2] = biological target: T4, fusion of FKBP12 to nanoluciferase (Homo sapiens, UniProt P62942+Q96SW2); experiment: FKBP Dual Luciferase Assay, wild-type 293FT, FKBP12; format: cell-based; conditions: 4 hours; for Dmax: read-out: Max Degradation (dual luciferase, %) FKBP
T4 construct: expressed in transfected cells

[3] = biological target: T5, fusion of mutant FKBP12 to nanoluciferase (Homo sapiens, UniProt P62942+Q96SW2, F37V); experiment: FKBP Dual Luciferase Assay, wild-type 293FT, mutant FKBP12 (36V); format: cell-based; conditions: 4 hours; read-out: Max Degradation (dual luciferase, %) FKBP 36V
T5 construct: expressed in transfected cells

FKBP12 (36V) = FKBP12 (36V) (Homo sapiens, UniProt P62942, F37V); experiment: FKBP12 (36V) Ligand-Displacement AlphaScreen Assay; format: binding; conditions: biotin-SLF displacement, read-out: IC50 (nM) FKBP 36V
BRD4 [4] = biological target: T3, BRD4; experiment: BRD4 Cell Western (BRD4 levels in 293T cells, LiCOR); format: cell-based; design: BRD4 levels in the cells after the dBET treatment; endogenous in cells
DND41 = experiment: Cell viability, ATPlite 48 hours, DND41; format: cell-based; conditions: DND41 cells
CUTL1 = experiment: Cell viability, ATPlite 48 hours, CUTLL1; format: cell-based; conditions: CUTL1 cells
[5] = biological target: T6, BRD4 adjoined to nanoluciferase (Nluc) (Homo sapiens, UniProt O60885+Q96SW2); experiment: BRD4 Dual Luciferase Assay; format: cell-based; conditions: for Emax: read-out: BRD4− Emax (percent remaining);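 on all read-outs here: transduced reporter cells exposed to compound for 4 h, then Nluc and Fluc luminescence read, each normalized to DMSO controls and expressed as Nluc/Fluc ratio per well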
T6 construct: expressed in transfected cells

MOLT4 = experiment: Cell viability, ATPlite 48 hours, MOLT4; format: cell-based; conditions: Homo sapiens, MOLT-4; MOLT4 cells
NGP = experiment: Cell viability, ATPlite 72 hours; format: cell-based; conditions: read-out: IC50 (nM) NGP
BRD4 [6] = biological target: T3, BRD4; experiment: BRD4 AlphaScreen; format: binding; design: […]; His tag (inferred from capture on Ni-coated acceptor beads)
PLK1 = PLK1 (Homo sapiens, UniProt P53350); experiment: PLK1 IC50 (Table 4); format: biochemical
FKBP12 (WT) = FKBP12 (WT) (Homo sapiens, UniProt P62942); experiment: FKBP12 (WT) Ligand-Displacement AlphaScreen Assay; format: binding; conditions: biotin-SLF displacement, read-out: IC50 (nM) FKBP
[7] = read-out: BRD4 max degradation(%) Dual Luciferase
[8] = HEK-293T; read-out: BRD4 max degradation(%) Cell Western
[9] = 4 hours, read-out: max degradation (dual luc)

Row | Compound | EC50 (CRBN) [µM] | IC50 797 [nM] | IC50 (CRBN-DDB1) [nM] | IC50 (BRDT; read-out: IC50 (nM) BRDT) [nM] | IC50 (MV4; 11) [nM] | IC50 (FKBP12 (36V)) [nM] | IC50 (DND41) [nM] | IC50 (CUTL1) [nM] | Dmax [5, 7] [%] | IC50 (MOLT4) [nM] | IC50 (NGP; NGP cells, Table 4) [nM] | other results
1 | COc1cc(C(=O)NCCCOCCOCCOCCCNC(=O)COc2cccc3c2C(=O)N(C2CCC(=O)NC2=O)C3=O)ccc1Nc1ncc2c(n1)N(C)c1ccccc1C(=O)N2C (centres unmarked) [dBET12] | 34.4 | > 20000 | 23.8 | 5870 | > 20000 | – | – | – | – | – | – | IC50 (LRRK2): 32 nM
2 | Cc1sc2c(c1C)C(c1ccc(Cl)cc1)=N[C@@H](CC(=O)OC(C)(C)C)c1nnc(C)n1-2 [JQ1] | – | – | – | – | – | – | – | – | – | – | – | BRD4 degradation by treatment alone (BRD4 [1]): insufficient to induce BRD4 degradation; induction of apoptosis after pulsed treatment and drug washout (MV4-11): did not yield a pronounced apoptotic response
3 | CCC(C)(C)C(=O)C(=O)N1CCC[C@H]1C(=O)O[C@H](CCc1ccc(OC)c(OC)c1)c1cccc(OCC(=O)NCCCCNC(=O)COc2cccc3c2C(=O)N(C2CCC(=O)NC2=O)C3=O)c1 (some centres unmarked) [dFKBP-3] | – | – | – | – | – | 1200 | – | – | – | – | – | Dmax [2]: 22%; Dmax [3]: 12%
4 | Cc1sc2c(c1C)C(c1ccc(Cl)cc1)=N[C@@H](CC(=O)NCCCCCCNC(=O)c1ccc3c(c1)C(=O)N(C1CCC(=O)NC1=O)C3=O)c1nnc(C)n1-2 (some centres unmarked) [dBET15] | – | 1270 | – | – | 312 | – | 10400 | 6840 | 18 | 6960 | – | Dmax (BRD4 [4]; HEK-293T, read-out: BRD4 max degradation(%) Cell Western): 24%; Emax [5]: 78.2%; Dmax ([5]; read-out: max degradation (dual luc)): 18.2%; IC50 (BRDT): 93 nM; IC50 (NGP; NGP): > 20000 nM
5 | COc1ccc(CC[C@@H](OC(=O)[C@@H]2CCCCN2C(=O)Cc2ccccc2)c2cccc(OCC(=O)NCCCCNC(=O)COc3cccc4c3C(=O)N(C3CCC(=O)NC3=O)C4=O)c2)cc1OC (some centres unmarked) [dFKBP-5] | – | – | – | – | – | 2290 | – | – | – | – | – | Dmax [2]: 11%; Dmax [3]: < 5%
6 | Cc1sc2c(c1C)C(c1ccc(Cl)cc1)=N[C@@H](CC(=O)NCCCN1CCN(C(=O)CCCCCNC(=O)COc3cccc4c3C(=O)N(C3CCC(=O)NC3=O)C4=O)CC1)c1nnc(C)n1-2 (some centres unmarked) [dBET18] | 749 | 1360 | 1.57 | 28 | – | – | 1790 | 2840 | 37 | 1920 | 4960 | IC50 (BRD4 [6]; read-out: BRD4 Alpha (IC50)): 11 nM; IC50 (BRD4 [6]; read-out: IC50 (nM) BRD4): 11 nM; Dmax (BRD4 [4]; [8]): 57%; Dmax [5, 9]: 36.5%; Emax ([5]; BRD4 remaining at Emax): 65.4%
7 | CCC(C)(C)C(=O)C(=O)N1CCCC[C@H]1C(=O)O[C@H](CCc1ccc(OC)c(OC)c1)c1cccc(OCC(=O)NCCCCNC(=O)COc2cccc3c2C(=O)N(C2CCC(=O)NC2=O)C3=O)c1 (some centres unmarked) [dFKBP-4] | – | – | – | – | – | 369 | – | – | – | – | – | DC50 [2]: 2.97 nM; Dmax [2]: 34%; Dmax [3]: 21%
8 | CC[C@@H]1C(=O)N(C)c2cnc(Nc3ccc(C(=O)NCCCOCCOCCOCCCNC(=O)COc4cccc5c4C(=O)N(C4CCC(=O)NC4=O)C5=O)cc3OC)nc2N1C1CCCC1 (some centres unmarked) [dBET10] | 8.12 | 163 | 12.7 | 309 | 28 | – | 271 | 152 | 25 | 452 | 413 | IC50 (BRD4 [6]; read-out: BRD4 Alpha (IC50)): 83 nM; IC50 (BRD4 [6]; read-out: IC50 (nM) BRD4): 83 nM; Dmax (BRD4 [4]; [8]): 20%; Conc@Emax [5]: 50 µM; Dmax [5, 9]: 25.3%; Emax ([5]; BRD4 remaining at Emax): 73.1%; IC50 (PLK1): 10.2 nM
9 | CCC(C)(C)C(=O)C(=O)N1CCCC[C@H]1C(=O)O[C@H](CCc1ccc(OC)c(OC)c1)c1cccc(NC(=O)CCC(=O)NCCCCNC(=O)COc2cccc3c2C(=O)N(C2CCC(=O)NC2=O)C3=O)c1 (some centres unmarked) [dFKBP-1] | – | – | – | – | – | 237 | – | – | – | – | – | IC50 (FKBP12 (WT)): 274 nM
10 | COc1cc(C(=O)NCCCCNC(=O)COc2cccc3c2C(=O)N(C2CCC(=O)NC2=O)C3=O)ccc1Nc1ncc2c(n1)N(C)c1ccccc1C(=O)N2C (centres unmarked) [dBET11] | 2430 | > 20000 | 25.1 | 2900 | 3.38 | – | – | – | – | – | – | IC50 (LRRK2): 7.3 nM; IC50 (BRD4 [6]; read-out: BRD4 Alpha (IC50)): 958 nM; IC50 (BRD4 [6]; read-out: IC50 (nM) BRD4): 958 nM
11 | Cc1sc2c(c1C)C(c1ccc(Cl)cc1)=N[C@@H](CC(=O)NCCCOCCOCCOCCCNC(=O)COc1cccc3c1C(=O)N(C1CCC(=O)NC1=O)C3=O)c1nnc(C)n1-2 (some centres unmarked) [dBET9] | – | 296 | – | 52 | 28 | – | 1520 | 1550 | 25 | – | 8420 | Dmax (BRD4 [4]; [8]): 41%; Dmax [5, 9]: 24.8%; Emax ([5]; BRD4 remaining at Emax): 71%
12 | CC[C@@H]1C(=O)N(C)c2cnc(Nc3ccc(C(=O)NCCCCNC(=O)COc4cccc5c4C(=O)N(C4CCC(=O)NC4=O)C5=O)cc3OC)nc2N1C1CCCC1 (some centres unmarked) [dBET2] | – | 113 | – | 405 | 6.3 | – | 110 | 81.2 | – | 192 | 156 | IC50 (PLK1): 6.15 nM
13 | O=C1CCC(N2C(=O)c3ccccc3C2=O)C(=O)N1 (centres unmarked) [thalidomide] | – | – | – | – | – | – | – | – | – | – | – | BRD4 degradation by treatment alone (BRD4 [1]; MV4-11, 24 h): insufficient to induce BRD4 degradation
